According to patent US4526889A, “Epimeric azahomoerythromycin A derivative, intermediates and method of use” (Pfizer Inc., priority 1984, dated 1985):
Converted amounts (≈) assume the structure as drawn. Where two headings read alike, the source gives them in different places.

What was measured:
Test in all cases: MIC in brain heart infusion (BHI) broth
H. influ. 038 = assay type: cell-based, Hemophilus influenzae; settings: Haemophilus influenzae
Text: (§1) Generally twelve 2 fold dilutions of the test compound are employed, with initial concentration of the test drug being in the range of 50 to 200 mcg./ml. The susceptibility (MIC) of the test organism is accepted as the lowest concentration of compound capable of producing complete inhibition of growth as judged by the naked eye. A comparison of the activity of 4"-epi-9-deoxo-9a-methyl-9a-aza-9a-homoerythromycin A (IV) with that of an erythromycin A control is shown in replicate in the Table I.

H. influ. 081 = assay type: cell-based, Hemophilus influenzae; settings: Haemophilus influenzae
Text: as §1

H. influ. 078 = assay type: cell-based, Hemophilus influenzae; settings: Haemophilus influenzae
Text: as §1

H. influ. 012 = assay type: cell-based, Hemophilus influenzae; settings: Haemophilus influenzae
Text: as §1

H. influ. 051 = assay type: cell-based, Hemophilus influenzae; settings: Haemophilus influenzae
Text: as §1

H. influ. 036 = assay type: cell-based, Hemophilus influenzae; settings: Haemophilus influenzae
Text: as §1

H. influ. 042 = assay type: cell-based, Hemophilus influenzae; settings: Haemophilus influenzae
Text: as §1

H. influ. 073 = assay type: cell-based, Hemophilus influenzae; settings: Haemophilus influenzae
Text: as §1

E. Coli 129 = assay type: cell-based; settings: Escherichia coli, BHI broth, read-out: MIC
Text: as §1

Staph. aur. 005 = assay type: cell-based; settings: BHI broth, read-out: MIC
Text: as §1

E. Coli 266 = assay type: cell-based; settings: Escherichia coli, BHI broth, read-out: MIC
Text: as §1

Past. mult. 001 = assay type: cell-based
Text: as §1

Ent. cloac. 009 = assay type: cell-based
Text: as §1

Kleb. pn. 009 = assay type: cell-based
Text: as §1

E. Coli 470 = assay type: cell-based; settings: Escherichia coli
Text: as §1

Staph. aur. 052 = assay type: cell-based; settings: BHI broth, read-out: MIC
Text: as §1

Kleb. pn. 031 = assay type: cell-based
Text: as §1

Staph. epi 111 = assay type: cell-based
Text: as §1

Serr. mar. 017 = assay type: cell-based
Text: as §1

Strep. pyog. 203 = assay type: cell-based
Text: as §1

Strep. faec. 006 = assay type: cell-based; settings: BHI broth, read-out: MIC
Text: as §1

Neiss. sic. 000 = assay type: cell-based
Text: as §1

Staph. aur. 400 = assay type: cell-based
Text: as §1

Kleb. oxy. 024 = assay type: cell-based
Text: as §1

Ent. aerog. 040 = assay type: cell-based
Text: as §1

Strep. pneumo. 012 = assay type: cell-based
Text: as §1

E. Coli 125 = assay type: cell-based; settings: Escherichia coli, BHI broth, read-out: MIC
Text: as §1

Prov. strua. 013 = assay type: cell-based
Text: as §1

Structure (SMILES): CC[C@H]1OC(=O)[C@H](C)[C@@H](O[C@H]2C[C@@](C)(OC)[C@@H](O)[C@H](C)O2)[C@H](C)[C@@H](O[C@@H]2O[C@H](C)C[C@H](N(C)C)[C@H]2O)[C@](C)(O)C[C@@H](C)C(=O)[C@H](C)[C@@H](O)[C@]1(C)O [Erythromycin A]
- MIC (H. influ. 038; 24 h): 6.25 µg/mL (≈ 8.52 µM)
- MIC (H. influ. 038; 48 h): 3.12 µg/mL (≈ 4.25 µM)
- MIC (H. influ. 081; 24 h): 3.12 µg/mL (≈ 4.25 µM)
- MIC (H. influ. 081; 48 h): 3.12 µg/mL (≈ 4.25 µM)
- MIC (H. influ. 078; 24 h, Day 1): 1.56 µg/mL (≈ 2.13 µM)
- MIC (H. influ. 078; 48 h, Day 2): 1.56 µg/mL (≈ 2.13 µM)
- MIC (H. influ. 012; 24 h, Day 1): 3.12 µg/mL (≈ 4.25 µM)
- MIC (H. influ. 012; 48 h, Day 2): 1.56 µg/mL (≈ 2.13 µM)
- MIC (H. influ. 051; 24 h): 3.12 µg/mL (≈ 4.25 µM)
- MIC (H. influ. 051; 48 h): 3.12 µg/mL (≈ 4.25 µM)
- MIC (H. influ. 036; 24 h, Day 1): 6.25 µg/mL (≈ 8.52 µM)
- MIC (H. influ. 036; 48 h, Day 2): 3.12 µg/mL (≈ 4.25 µM)
- MIC (H. influ. 042; 24 h, Day 1): 1.56 µg/mL (≈ 2.13 µM)
- MIC (H. influ. 042; 48 h, Day 2): 1.56 µg/mL (≈ 2.13 µM)
- MIC (H. influ. 073; 24 h): 3.12 µg/mL (≈ 4.25 µM)
- MIC (H. influ. 073; 48 h): 3.12 µg/mL (≈ 4.25 µM)
- MIC (E. Coli 129; 24 h, Day 1): > 50 µg/mL
- MIC (E. Coli 129; 48 h, Day 2): > 50 µg/mL
- MIC (Staph. aur. 005; 24 h, Day 1): 0.05 µg/mL (≈ 0.0681 µM)
- MIC (Staph. aur. 005; 48 h, Day 2): 0.05 µg/mL (≈ 0.0681 µM)
- MIC (E. Coli 266; 24 h, Day 1): > 50 µg/mL
- MIC (E. Coli 266; 48 h, Day 2): > 50 µg/mL
- MIC (Past. mult. 001; 24 h): 1.56 µg/mL (≈ 2.13 µM)
- MIC (Past. mult. 001; 48 h): 1.56 µg/mL (≈ 2.13 µM)
- MIC (Ent. cloac. 009; 24 h, Day 1): > 50 µg/mL
- MIC (Ent. cloac. 009; 48 h, Day 2): > 50 µg/mL
- MIC (Kleb. pn. 009; 24 h, Day 1): > 50 µg/mL
- MIC (Kleb. pn. 009; 48 h, Day 2): > 50 µg/mL
- MIC (E. Coli 470; 24 h): 3.12 µg/mL (≈ 4.25 µM)
- MIC (E. Coli 470; 48 h): 3.12 µg/mL (≈ 4.25 µM)
- MIC (Staph. aur. 052; 24 h, Day 1): 0.1 µg/mL (≈ 0.136 µM)
- MIC (Staph. aur. 052; 48 h, Day 2): 0.1 µg/mL (≈ 0.136 µM)
- MIC (Kleb. pn. 031; 24 h, Day 1): > 50 µg/mL
- MIC (Kleb. pn. 031; 48 h, Day 2): > 50 µg/mL
- MIC (Staph. epi 111; 24 h, Day 1): 0.05 µg/mL (≈ 0.0681 µM)
- MIC (Staph. epi 111; 48 h, Day 2): 0.05 µg/mL (≈ 0.0681 µM)
- MIC (Serr. mar. 017; 24 h, Day 1): > 50 µg/mL
- MIC (Serr. mar. 017; 48 h, Day 2): > 50 µg/mL
- MIC (Strep. pyog. 203; 24 h, Day 1): 0.025 µg/mL (≈ 0.0341 µM)
- MIC (Strep. pyog. 203; 48 h, Day 2): 0.025 µg/mL (≈ 0.0341 µM)
- MIC (Strep. faec. 006; 24 h, Day 1): 0.78 µg/mL (≈ 1.06 µM)
- MIC (Strep. faec. 006; 48 h, Day 2): 0.78 µg/mL (≈ 1.06 µM)
- MIC (Neiss. sic. 000; 24 h): 1.56 µg/mL (≈ 2.13 µM)
- MIC (Neiss. sic. 000; 48 h): 3.12 µg/mL (≈ 4.25 µM)
- MIC (Staph. aur. 400; 24 h): 3.12 µg/mL (≈ 4.25 µM)
- MIC (Staph. aur. 400; 48 h): 6.25 µg/mL (≈ 8.52 µM)
- MIC (Kleb. oxy. 024; 24 h, Day 1): > 50 µg/mL
- MIC (Kleb. oxy. 024; 48 h, Day 2): > 50 µg/mL
- MIC (Ent. aerog. 040; 24 h, Day 1): > 50 µg/mL
- MIC (Ent. aerog. 040; 48 h, Day 2): > 50 µg/mL
- MIC (Strep. pneumo. 012; 24 h, Day 1): 0.025 µg/mL (≈ 0.0341 µM)
- MIC (Strep. pneumo. 012; 48 h, Day 2): 0.025 µg/mL (≈ 0.0341 µM)
- MIC (E. Coli 125; 24 h, Day 1): > 50 µg/mL
- MIC (E. Coli 125; 48 h, Day 2): > 50 µg/mL
- MIC (Prov. strua. 013; 24 h, Day 1): > 50 µg/mL
- MIC (Prov. strua. 013; 48 h, Day 2): > 50 µg/mL
